Where a name gives a salt, the structure may show the parent alone.

For the first assay, the target named is T1, IGF-1R (Homo sapiens, UniProt P08069).
T1 construct: purchased Upstate Co. 14-465
T1 sequence (P08069 959-1367 limits assumed): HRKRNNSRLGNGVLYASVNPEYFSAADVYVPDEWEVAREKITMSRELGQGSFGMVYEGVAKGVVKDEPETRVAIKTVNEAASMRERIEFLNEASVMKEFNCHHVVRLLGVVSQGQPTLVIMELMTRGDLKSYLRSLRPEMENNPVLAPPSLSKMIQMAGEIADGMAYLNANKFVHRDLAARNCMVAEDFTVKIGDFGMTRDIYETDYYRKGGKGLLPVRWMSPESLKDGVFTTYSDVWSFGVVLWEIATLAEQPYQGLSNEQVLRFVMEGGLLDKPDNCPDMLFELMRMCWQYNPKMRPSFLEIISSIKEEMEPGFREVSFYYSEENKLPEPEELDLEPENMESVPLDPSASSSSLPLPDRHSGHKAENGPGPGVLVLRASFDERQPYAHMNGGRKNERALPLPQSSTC
Description: IGF-1R inhibitory activity (kinase reaction, time-resolved fluoroimmunoassay). In kind it is biochemical. The conditions noted are these: IGF-1R active recombinant enzyme, test compound 10 μmol/L. The protocol: The IGF-1R inhibitory activity was measured in the following manner.
As IGF-1R, active recombinant enzyme (Catalog No. 14-465) purchased from Upstate Co., was used. To 96 well plate (FIA-PLATE BLACK 96 well FALT-BOTTOM HIGH BINDING, Greiner Bio-one, Catalog No. 655077) coated with NeutroAvidin (Pierce, Catalog No. 31000), biotinylated polyglutamic acid-tyrosine peptide (Nihon Schering K.K., Catalog No. 61GT0BAA) was immobilized and then blocked with 0.25% gelatin to be used as a plate for measuring the kinase reaction. Separately was prepared a solution containing at final concentrations, IGF-1R (200 μg/L), Tris.HCl(pH 7.5)(20 mmol/L), Na3VO4(0.1 mmol/L), MgCl2(1 mmol/L), MnCl2(10 mmol/L), ATP(10 mmol/L), 2-mercaptoethanol (0.04%), BSA(Bovine Serum Albumin) (0.1%), DMSO(0.1%), test compound (10 μmol/L). The solution (each 50 μL) was added to the well of the plate for measuring the kinase reaction and then, enzyme reaction was performed for 30 minutes at 24° C. The plate was washed with TBS-T [10 mmol/L Tris Cl (pH 7.5), 150 mmol/L NaCl, 0.05% Tween 20 (Bio-Rad, Catalog No. 170-6531)] 4 times, then reacted with europium-labeled anti-phosphotyrosine antibody, further washed with TBS-T 4 times and then, measured with time-resolved fluoroimmunoassay (excitation wavelength 340 nm, measuring wavelength 615 nm). The value of a well to which the test compound had not been added was considered as 100% and that of a well where the enzyme and the test compound had not been added was considered as 0%. The relative activity (%) of the well which was added with enzyme and the test compound was measured and by subtracting the calculated value from 100, IGF-1R inhibitory activity of the test compound (%) was determined.
Take `CS(=O)(=O)c1ccc(C(=O)Nc2ccccc2/C=C/c2n[nH]c3ccccc23)s1` [Compound 354, (E)-N-{2-[2-(1H-indazol-3-yl)vinyl]phenyl}-5-(methylsulfonyl)thiophene-2-carboxamide]: the inhibition at 10 µM stood at 97.1%.
The same measure, in the same setting: as for `O=C1c2cccc(F)c2C(=O)N1c1ccccc1/C=C/c1n[nH]c2ccccc12` [Compound 199, (E)-4-fluoro-2-{2-[2-(1H-indazol-3-yl)vinyl]phenyl}isoindole-1,3-dione], the figure is 99.4%.
`O=C1CCCCN1c1ccccc1/C=C/c1n[nH]c2ccccc12` [Compound 206, (E)-1-{2-[2-(1H-indazol-3-yl)vinyl]phenyl}piperidin-2-one]: the inhibition at 10 µM amounted to 101%.
Take `O=C1CCCN1c1ccccc1/C=C/c1n[nH]c2ccccc12` [Compound 208, (E)-1-{2-[2-(1H-indazol-3-yl)vinyl]phenyl}pyrrolidin-2-one]: the inhibition at 10 µM worked out at 96.1%.
As to `O=C1c2cccc(O)c2C(=O)N1c1ccccc1/C=C/c1n[nH]c2ccccc12` [Compound 200, (E)-4-hydroxy-2-{2-[2-(1H-indazol-3-yl)vinyl]phenyl}isoindole-1,3-dione], the inhibition at 10 µM was determined as 67.5%.
Still for that read-out and setting: then `O=C(Nc1ccccc1/C=C/c1n[nH]c2ccccc12)c1ccccc1[N+](=O)[O-]` [Compound 74, (E)-N-{2-[2-(1H-indazol-3-yl)vinyl]phenyl}-2-nitrobenzamide], with 97.6%; and `Cn1cccc1C(=O)Nc1ccc(N2CCOCC2)cc1/C=C/c1n[nH]c2ccccc12` [Compound 226, (E)-N-{2-[2-(1H-indazol-3-yl)vinyl]-4-(morpholin-4-yl)phenyl}-1-methyl-1H-pyrrole-2-carboxamide hydrochloride], with 97.8%; and `OCCc1nc(-c2ccccc2/C=C/c2n[nH]c3ccccc23)no1` [Compound 181, (E)-2-{3-{2-[2-(1H-indazol-3-yl)vinyl]phenyl}[1,2,4]oxadiazol-5-yl}ethanol], with 98.9%.
`O=C1c2ccccc2C(=O)N1c1ccc(F)cc1/C=C/c1n[nH]c2ccccc12` [Compound 250, (E)-2-{4-fluoro-2-[2-(1H-indazol-3-yl)vinyl]phenyl}isoindole-1,3-dione]: the inhibition at 10 µM turned out to be 98.9%.
The same measure, in the same setting: as for `CN(C)C(=O)c1ccc(/C=C/c2n[nH]c3ccccc23)c(N2C(=O)c3ccccc3C2=O)c1` [Compound 285, (E)-3-(1,3-dioxo-1,3-dihydroisoindol-2-yl)-4-[2-(1H-indazol-3-yl)vinyl]-N,N-dimethylbenzamide], the figure is 99%; as for `CSc1ccccc1/C=C/c1n[nH]c2ccccc12` [Compound 146, (E)-3-[2-(2-methylsulfanylphenyl)vinyl]-1H-indazole], 78.3%.
On to `C(=C\c1n[nH]c2ccccc12)/c1ccccc1NCc1ccccc1` [Compound 26, (E)-N-benzyl-N-{2-[2-(1H-indazol-3-yl)vinyl]phenyl}amine], for which the inhibition at 10 µM was 67.8%.
The same measure, in the same setting: then `C(=C\c1cccc2nc(-c3cccs3)oc12)/c1n[nH]c2ccccc12` [Compound 149, (E)-7-[2-(1H-indazol-3-yl)vinyl]-2-(thiophen-2-yl)benzoxazole], with 70%; and `CNC(=O)c1nc(-c2ccccc2/C=C/c2n[nH]c3ccccc23)no1` [Compound 177, (E)-3-{2-[2-(1H-indazol-3-yl)vinyl]phenyl}-N-methyl[1,2,4]oxadiazole-5-carboxamide], with 99.4%.

The same assay, now with this note: test compound 10 μmol/L.
Take `COc1cccc(/C=C/c2n[nH]c3ccccc23)c1N` [Compound 93, (E)-2-[2-(1H-indazol-3-yl)vinyl]-6-methoxyphenylamine]: the inhibition at 10 µM is 70.6%.
On to `Cc1ccsc1C(=O)Nc1cc(C(=O)NCCO)ccc1/C=C/c1n[nH]c2ccccc12` [Compound 114, (E)-N-{5-[N-(2-hydroxyethyl)carbamoyl]-2-[2-(1H-indazol-3-yl)vinyl]phenyl}-3-methylthiophene-2-carboxamide], for which the inhibition at 10 µM was found to be 92%.

The values above are taken from US7605272B2, “IGF-1R inhibitor” (Kyowa Hakko Kirin Co., Ltd., priority 2005, dated 2009).
